Experimental data as given in EP0411733A2, “11-Beta-aryle-gona-4,9-dien-3-ones” (SCHERING AKTIENGESELLSCHAFT, priority 1989, dated 1991).

System: weibliche gravide Raten
Assay: abortive effect (inhibition of fertility) in pregnant rats, subcutaneous treatment
Assay type: in vivo
Details: Gesamtdosis 2 mg/Tier/4d, subkutan in Erdnußöl, 5. bis 8. Graviditätstag, Autopsie am 20. Graviditätstag; for Fertilitätshemmung absol.: N = 6
Text: Zur Kennzeichnung der antigestagenen Wirkung dient die tierexperimentell ermittelt abortive Wirkung der Substanzen. Zu diesem Zweck wurden weibliche gravide Raten (positiver Spermiennachweis = 1 Graviditätstag) im Gewicht zwischen 180 und 200 g am 5. bis 8. Graviditätstag mit der Testverbindung in Erdnußöl suspendiert subkutan behandelt. Nach Autopsie am 20. Graviditätstag wurden die Uterie untersucht. Dabei wurde die Anzahl der graviden Weibchen und die durchschnittliche Zahl der Feten pro gravides Tier festgestellt. Der Hemmeffekt wurde wie folgt berechnet: [formula]

Row | Compound | Fertilitätshemmung rel. % [%] | Fertilitätshemmung absol.
1 | COCC1(OC)CCC2C3CCC4=CC(=O)CCC4=C3C(c3ccc(C(C)=O)cc3)CC21C (stereo not drawn) [11β-(4-Acetylphenyl)-17β-methoxy-17α-methoxymethyl-estra-4,9-dien-3-on] | 100 | 6
2 | CC#CC1(OC)CCC2C3CCC4=CC(=O)CCC4=C3C(c3ccc(C(C)=O)cc3)CC21C (stereo not drawn) [11β-(4-Acetylphenyl)-17β-methoxy-17α-propinyl-13-methyl-gona-4,9-dien-3-on] | 100 | 6
3 | CC#CC1(OC)CCC2C3CCC4=CC(=O)CCC4=C3C(c3ccc(N(C)C)cc3)CC21C (stereo not drawn) [11β-(4-Dimethylaminophenyl)-17β-methoxy-17α-propinyl-13-methyl-gona-4,9-dien-3-on] | 100 | 6
4 | CO[C@@]12C[C@@H]1C[C@H]1[C@@H]3CCC4=CC(=O)CCC4=C3[C@@H](c3ccc(C(C)=O)cc3)C[C@@]12C [11β-(4-Acetylphenyl)-17β-methoxy-16α,17α-methylen-estra-4,9-dien-3-on] | 100 | 6
5 | CC#C[C@]1(O)CC[C@H]2[C@@H]3CCC4=CC(=O)CCC4=C3[C@@H](c3ccc(N(C)C)cc3)C[C@@]21C [RU 486, 11β-(4-Dimethylaminophenyl)-17β-hydroxy-17α-(prop-1-inyl)-4,9-estradien-3-on, reference compound] | 80 | –
6 | C#C[C@]1(OC)CC[C@H]2[C@@H]3CCC4=CC(=O)CCC4=C3[C@@H](c3ccc(C(C)=O)cc3)C[C@@]21C [17β-Methoxy-17α-ethinyl-11β-acetylphenyl, 11β-(4-Acetylphenyl)-17α-ethinyl-17β-methoxy-13-methyl-gona-4,9-dien-3-on] | 100 | 6
